Laboratory results published in paper PMC12914960, “Repurposing a detrimental antibody epitope as targeted therapeutics for sepsis and rheumatoid arthritis” (Military Medical Research, 2026).
Where a SMILES comes first, the peptide text is derived from it.

Tests used:
human PBMCs = assay: HMGB1-induced cytokine/chemokine secretion by PBMCs, cytokine antibody arrays; type: cell-based; details: P2-1 5.0 or 10.0 µg/ml, 16 h
Experimental: Human blood was purchased from the New York Blood Center (Long Island City, NY, USA), and PBMCs were isolated via density gradient centrifugation through Ficoll (Ficoll-Paque PLUS) as previously described. PBMCs were cultured in RPMI-1640 supplemented with 10% human serum, 2 mmol/L L-glutamine, 100 U/ml penicillin, and 100 µg/ml streptomycin (all from Invitrogen, Carlsbad, CA, USA). For experiments, PBMCs were stimulated with recombinant HMGB1 (0.5 or 2.0 µg/ml) for 16 h, either alone or in combination with P2-1 at 5.0 or 10.0 µg/ml. Cell-free supernatants were collected for analysis of cytokine/chemokine levels via cytokine antibody arrays, or pCTS-L levels via Western blotting analysis as previously described.
The levels of cytokines and chemokines in mouse serum and joint tissue lysates, or human PBMC culture supernatants, were determined via murine or human cytokine antibody arrays (e.g., Cat. #AAM-CYM-3–8 or Cat. #AAH-CYT-3–8, RayBiotech Inc., Norcross, GA, USA) as previously described. For the sepsis model, blood samples were collected from the mice (n = 4) at 24 h post-CLP. […] Arrays were performed according to the manufacturer’s protocol, followed by chemiluminescent detection and densitometric quantification as previously described. […]

[1] = system: Differentiated human macrophages; assay: Cellular uptake of Alexa Fluor 555-labeled HMGB1 by differentiated macrophages; type: cell-based; details: P2-1 10 µg/ml, HMGB1 0.5 µg/ml, 2 h, 37 °C
Experimental: plots and heatmaps were generat ed via ggplot2 and pheatmap packages in R, respectively. Genes with an adjusted P -value < 0.05 and a |log2 fold change| > 1 were considered differentially expressed.
Human macrophage differentiation and treatment
Human PBMCs were differentiated into macrophages by culturing in human macrophage colony-stimulating factor (M-CSF, 20 ng/ml) for 5 – 6 d. Differentiated macrophages were maintained in Dulbecco’s modified Eagle’s medium supplemented with 1% penicillin/streptomycin and 10% human serum. […]
Cell viability was assessed via the tryp an blue excl usion and lactat e dehyd ro genase (LDH) release method as previously described . For trypan blue exclusion, random phase-contr ast images were captur ed , and the percentage of nonviable, trypan blue-stained cells was calculated. LDH release in the culture medium was quantified with an LDH Ass ay Kit (Cat. #L7572, Pointe Scientific Inc., Canton, MI, USA) according to the manufacturer ’s instructions. Optical density was measured at 340 nm, and LDH content was expressed as a per centag e of maximal release in the presence of 2% Triton X-100. […]
#H-1200, Vector Laborat ories, Inc., Newark, CA, USA) for nuclear counterstaining. Endocytic uptake of Alexa Fluor 555- labeled HMGB1 (red) was visualized via the Olympus IX51 inverted fluorescence & phase contrast tissue culture microscope. […]

CCCC[C@H](NC(=O)[C@H](Cc1c[nH]cn1)NC(=O)[C@@H](NC(=O)[C@H](CCCCN)NC(=O)[C@@H](N)[C@@H](C)O)C(C)C)C(=O)N[C@@H](CCCCN)C(=O)N[C@@H](CO)C(=O)N[C@@H](Cc1ccccc1)C(=O)N[C@@H](CC(C)C)C(=O)N[C@@H](C)C(=O)N[C@@H](Cc1ccccc1)C(=O)N[C@@H](CCC(N)=O)C(=O)N[C@H](C(=O)N[C@@H](CCCCN)C(=O)N[C@H](C(=O)O)[C@@H](C)O)[C@@H](C)O [P2-1] (HELM PEPTIDE1{T.K.V.H.[Nle].K.S.F.L.A.F.Q.T.K.T}$$$$V2.0; N-terminus and C-terminus assumed)
HMGB1-induced cytokine/chemokine secretion, in words (human PBMCs): did not broadly inhibit the secretion of these HMGB1-induced cytokines and chemokines | HMGB1 cellular uptake, in words [1]: markedly reduced Alexa Fluor 555-HMGB1 uptake
